Measured values: patent US20170000749A1, “Methods for Treating Cognitive Disorders Using Inhibitors of Histone Deacetylase” (Forum Pharmaceuticals, Inc., priority 2008, published 2017)

System: Drosophila Huntington's Disease model flies
Experiment: In Vivo Drosophila Fly Assay for Treatment of Huntington's Disease (automated climbing behavioral assay)
Parameters: species or system Drosophila melanogaster
Settings: for Speed 1 to 7 (concentration) 30 uM / Speed 1 to 7 (concentration) 100 uM / Speed 1 to 7 (concentration) 300 uM: effect size of early speed (days 1-7) vs DMSO-carrier control; for Speed 8 to 10 (concentration) 30 uM / Speed 8 to 10 (concentration) 100 uM / Speed 8 to 10 (concentration) 300 uM: effect size of late speed (days 8-10) vs DMSO-carrier control
From the text: The Drosophila Huntington's Disease assay used to screen compounds of the present disclosure followed that of WO 2007/002497, which is hereby incorporated by reference in its entirety.
Briefly, parental (model and driver) lines are maintained in sufficient quantities to provide virgins and males for assay crosses as well as perpetuating the lines. Disease model flies are maintained with the disease genes “silent”, functionally linked to a UAS enhancer element. The “driver” lines contain a GAL4 element under the control of a tissue-specific promoter. These are crossed together to generate the assay flies which have tissue-specific (i.e. CNS) expression of the disease gene(s).
Weekly assay crosses are set up with sufficient virgins and males to generate enough assay embryos for sorting. Approximately 50,000 males and 75,000 virgins are crossed in population cages. Embryos are collected for an eight hour window two days later. The embryos are then sorted onto 16 mm assay vials containing regular fly media and allowed to develop. Flies containing both the GAL4 driver element and the disease gene(s) are detected by the presence of GFP, a fluorescing protein. Approximately 10 assay flies eclose per vial, the optimal number for the behavioral assay. Once the flies eclose, they are transferred onto assay vials containing liquid Drosophila food. Similarly, control crosses are set up with virgins of the driver and males from a non-disease UAS line. Throughout fly production and the assay days, all flies are maintained at constant temperature and humidity, with preset light cycle, optimized for the particular lines and crosses.
Quality control (QC) for the parental lines is carried out weekly by collecting a sample of random male flies from each line. Single-fly PCR is carried out to ascertain the presence of the GAL4 or UAS element. If greater than 5% of the individuals lack the appropriate element, the assay cross is aborted. A second form of QC is also carried out to ensure that the GAL4 element is able to drive expression of a transgene. A sample of individual “driver” virgins is crossed to UAS-GFP males. Their progeny are visually checked for GFP expression in the appropriate tissues. Lack of GFP in greater than 4% of the crosses results in the assay being aborted.
Test compounds are weighed out and dissolved in DMSO at stock concentrations 100× what is desired in the assay and arrayed into 96-well master plates, including wells for DMSO-only controls and the positive control(s). A single well is reserved for a colored dye used to ensure proper orientation of compounds during drug dispensing and fly transfer. Replicate daughter plates for each day of the assay are stamped out. The plates are bar coded and stored at −20 C until used for the assay.
For a particular assay day, the plates are thawed and a robotic liquid handler is used to dilute the test compound into the liquid fly food and dispense the mixture into the assay vials. For Huntington Disease (HD) models, eight replicates per single treatment (one compound, one concentration) are dispensed. Fresh test compound treated media is made daily during an assay.
On the day the assay flies eclose (emerge from […]; assay Day 0) they are transferred to the test compound treated vials. On assay Day 1, the flies are transferred onto clean test compound treated vials one hour before assay time. They are then placed in the assay machine to acclimate to the appropriate climate conditions.
The assay machine is an environmentally-enclosed and controlled robot that can maintain user-set temperature and humidity. The machine can hold up to sixteen 96-vial racks in four quadrants, for a total of 1536 vials. There are four camera stations, which hold four vials each and a CCD camera for movie capture. […]

| Compound | Speed 1 to 7 (concentration) 30 uM | Speed 1 to 7 (concentration) 100 uM | Speed 1 to 7 (concentration) 300 uM | Speed 8 to 10 (concentration) 30 uM | Speed 8 to 10 (concentration) 100 uM | Speed 8 to 10 (concentration) 300 uM |
| --- | --- | --- | --- | --- | --- | --- |
| Cc1ccc(N2CC3CC2CN3c2ncc(C(=O)NO)cn2)cc1 (stereo not shown) | −0.007 | 0.046 | 0.829 | −0.134 | −0.369 | −0.107 |
| CC(C)OC(=O)N1CC2CC1CN2c1ncc(C(=O)NO)cn1 (stereo not shown) | 0.495 | 0.33 | −0.469 | 0.338 | 0.368 | 0.512 |
| O=C(NO)c1cnc(N2CC3CC2CN3c2ccc3c(c2)OC(F)(F)O3)nc1 (stereo not shown) | 0.28 | 0.64 | 0.66 | 0.22 | 0.46 | 0.58 |
| O=C(NO)c1cnc(N2CC3CC2CN3c2cccc3nonc23)nc1 (stereo not shown) | – | 0.84 | 0.68 | – | 0.26 | 0.5 |
| O=C(NO)c1cnc(N2CC3CC2CN3c2cccc(C(F)(F)F)c2)nc1 (stereo not shown) | 0.02 | 0.48 | 0.506 | −0.14 | 0.3 | −0.112 |
| O=C(NO)c1cnc(N2CC3CC2CN3c2cccc(C(F)(F)F)n2)nc1 (stereo not shown) | 0.781 | 0.549 | 0.411 | 0.291 | 0.376 | 0.471 |
| O=C(NO)c1cnc(N2CC3CC2CN3c2cccc(SC(F)(F)F)c2)nc1 (stereo not shown) | 0.63 | 0.38 | 0.03 | 0.28 | 0.02 | −0.29 |
| O=C(NO)c1cnc(N2CC3CC2CN3c2cc(C(F)(F)F)ccn2)nc1 (stereo not shown) | 0.468 | 0.82 | 0.3 | 0.087 | 0.82 | 0.54 |
| Cc1cccc(N2CC3CC2CN3c2ncc(C(=O)NO)cn2)c1 (stereo not shown) | 0.493 | 0.588 | 0.412 | 0.036 | 0.359 | 0.439 |
| O=C(NO)c1ccc(C2=Nc3ccccc3Oc3ccc(F)cc32)cc1 [drawing 821] | 0.118 | −0.004 | 0.444 | −0.108 | 0.139 | 0.47 |
| O=C(NO)c1cnc(N2CC3CC2CN3c2cccc(OC(F)(F)F)c2)nc1 (stereo not shown) | 0.05 | −0.01 | 0.68 | 0.15 | 0.16 | 0.35 |
